Reference: patent EP3095787A1, “[…] ACTIVE COMPOUNDS AS DAG-LIPASE INHIBITORS” (Universiteit Leiden, priority 2015, dated 2016)

Key:
recombinant human MAGL = target: T1, recombinant human MAGL (Homo sapiens, UniProt Q99685); assay: MAGL assay (glycerol detection, 2-AG as substrate); type: biochemical
T1 construct: expressed in transfected cells; membranes overexpressing MAGL
T1 sequence (Q99685 1-303): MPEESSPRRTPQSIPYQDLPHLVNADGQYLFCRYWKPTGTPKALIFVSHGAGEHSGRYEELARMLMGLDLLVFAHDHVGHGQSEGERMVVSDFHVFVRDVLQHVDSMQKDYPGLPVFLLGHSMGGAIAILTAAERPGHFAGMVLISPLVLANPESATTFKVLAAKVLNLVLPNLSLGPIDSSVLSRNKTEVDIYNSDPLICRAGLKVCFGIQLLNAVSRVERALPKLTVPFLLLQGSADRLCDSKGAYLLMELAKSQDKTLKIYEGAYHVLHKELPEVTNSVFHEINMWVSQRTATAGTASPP
Excerpt: This methodology allows for a more accurate quantification avoiding band overlap (as observed with gel-based assay) and allows screening over a broader range of specified serine hydrolases. Equal isotopic labeling and detection of light and medium peptides from proteins targeted by both ABPs (Figure 2G) were validated. Next, to investigate the selectivity of inventive compound 25 in this chemoproteomic assay was set out. […] In addition, the inventors tested compound 25 in biochemical assays using recombinant human MAGL and in a cannabinoid CB1 receptor radioligand displacement assay. A significant interaction ([…]) with these proteins of the endocannabinoid system could not be found. The CB1 displacement assays were performed as described below.
MAGL assay was performed as described below. Standard assays were performed under similar conditions as for the glycerol detection besed DAGL-α activity assay , but at a final protein concentration of 1.5 µg/mL (0.3 µg MAGL-overexpressing membranes per well) and with 2-arachidonoylglycerol (2-AG) as the substrate. 2-AG was directly added from a stock solution in acetonitrile and no Triton X-100 was added. Fluorescence was measured in 5 min intervals for 60 min. Final assay concentrations: 0.2 U/mL GK, GPO and HRP, 0.125 mM ATP, 10 µM Amplifu™Red, 25 µM 2-AG, 5% DMSO, 0.5% ACN in a total volume of 200 µL.

human PC3 cells = assay: Lipidomics in PC3 cells; type: cell-based; settings: 4h at 37 °C in serum free medium
Description: To test the activity of inventive compound 25 in a human cell line, human PC3 cells (prostate cancer cell line) were used. The protocol for lipodomics in PC3 cells is given below. Before inhibitor treatment, the culture medium was removed and the cells were washed with warm (37 °C) serum free medium (3x). The cells were treated with vehicle (DMSO) or inhibitor for 4h at 37 °C in serum free medium. After 4h of incubation medium was removed and the cells were washed with cold (4°C) DPBS (3x) and subsequently suspended in DPBS and pelleted. The cell pellet metabolome was extracted and by MeOH/CHCl3 extraction and analysed by LCMS/MS of a triple quad mass spectometer (agilent). The concentration of the lipids was determined by comparison with spiked deuterated standards of the lipd species. […] This may indicate that downstream metabolic pathways of 2-AG signaling are also affected and that the biosynthesis of 2-AG is the rate-limiting step.

hDAGL-α = target: T2, hDAGL-α (Homo sapiens, UniProt Q9Y4D2); assay: Mode of action (reversibility) experiment: size exclusion chromatography, then MB064 labeling; type: biochemical; design: expressed in transfected cells; settings: pre-incubation at IC80 concentration; remaining activity visualized with MB064; n=3
T2 sequence (Q9Y4D2 1-1042): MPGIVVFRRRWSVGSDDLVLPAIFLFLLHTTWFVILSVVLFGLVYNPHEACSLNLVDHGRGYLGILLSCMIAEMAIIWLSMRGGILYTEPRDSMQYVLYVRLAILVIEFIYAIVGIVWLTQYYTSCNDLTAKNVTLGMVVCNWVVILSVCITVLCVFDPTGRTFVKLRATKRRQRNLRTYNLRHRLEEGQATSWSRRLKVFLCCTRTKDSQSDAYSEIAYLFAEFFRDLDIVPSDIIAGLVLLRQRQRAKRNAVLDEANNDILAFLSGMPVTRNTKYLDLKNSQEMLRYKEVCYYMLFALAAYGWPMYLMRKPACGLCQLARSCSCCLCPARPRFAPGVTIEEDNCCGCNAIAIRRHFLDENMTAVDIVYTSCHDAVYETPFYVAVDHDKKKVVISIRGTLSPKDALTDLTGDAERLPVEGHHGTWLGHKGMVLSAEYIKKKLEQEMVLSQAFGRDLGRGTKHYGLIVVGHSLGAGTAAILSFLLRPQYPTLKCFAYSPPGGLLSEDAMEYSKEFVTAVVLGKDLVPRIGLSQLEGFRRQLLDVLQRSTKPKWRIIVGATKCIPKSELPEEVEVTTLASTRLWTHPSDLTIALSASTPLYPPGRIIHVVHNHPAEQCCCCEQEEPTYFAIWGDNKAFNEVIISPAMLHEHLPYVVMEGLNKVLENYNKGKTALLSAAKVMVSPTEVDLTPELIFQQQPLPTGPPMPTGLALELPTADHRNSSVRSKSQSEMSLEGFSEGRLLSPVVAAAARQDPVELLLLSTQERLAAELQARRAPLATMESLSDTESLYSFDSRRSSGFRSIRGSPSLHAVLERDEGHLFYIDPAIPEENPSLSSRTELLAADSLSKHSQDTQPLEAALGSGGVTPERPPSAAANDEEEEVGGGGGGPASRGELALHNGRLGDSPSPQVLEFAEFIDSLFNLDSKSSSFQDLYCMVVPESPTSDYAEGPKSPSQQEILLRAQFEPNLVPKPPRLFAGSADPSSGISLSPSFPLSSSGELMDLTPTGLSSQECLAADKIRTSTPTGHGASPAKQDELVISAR
Description: To determine the mode of action (reversible versus irreversible) of the inventive compounds, an experiment in which human DAGL-α membranes were pre-incubated at the IC80 concentration of compound 25 or the irreversible DAGL inhibitor KT-109 was performed.

FAAH = settings: reported value; cited from earlier work

Ki (recombinant human MAGL) [µM]	recovery of DAGL-α activity after size exclusion chromatography (hDAGL-α)	SMILES	2-AG levels (human PC3 cells)	arachidonic acid levels (human PC3 cells)	substrate levels of DAGL (human PC3 cells)	FAAH Activity assay reported pKi (FAAH)
> 10	reversibility	Cc1ccc(-c2cnc3nc(C(=O)CCCCCc4ccccc4)oc3c2)cc1 [Compound 25, 1-(6-(p-Tolyl)oxazolo[4,5-b]pyridin-2-yl)-6-phenylhexan-1-one]	reduced 2-AG levels	reduced	no change	–
–	–	O=C(CCCCCc1ccccc1)c1nc2ncccc2o1 [Compound 1, 1-(Oxazolo[4,5-b]pyridin-2-yl)-6-phenylhexan-1-one, reference compound]	–	–	–	9.70
